Patent US7786297B2, “Purified form of tanaproget” (Wyeth LLC, priority 2005, dated 2010)

Assay: storage stability of purified tanaproget Form I (polymorph conversion)
Type: physicochemical
Details: storage of purified tanaproget Form I alone or in combination with other agents/excipients

In the case of `Cn1c(C#N)ccc1-c1ccc2c(c1)C(C)(C)OC(=S)N2` [purified tanaproget Form I, 5-(4,4-dimethyl-2-thioxo-1,4-dihydro-2H-3,1-benzoxazin-6-yl)-1-methyl-1H-pyrrole-2-carbonitrile], the “stability / conversion to another polymorph during storage” value is reported as “stable and less likely to convert to another polymorph during storage”.
